Measurements: patent US9458085B2, “Formulations” (priority 2010, dated 2016)
Where a name gives a salt, the structure may show the parent alone. Read-outs that look alike come from different tables or passages of the source.

Legend:
[1] = Water solubility of solvents at 25° C. (saturated solution, chromatographic analysis); format: physicochemical
Experimental: Typically, solvents which have aqueous solubilities of about (or at least) 0.1% w/w [at the relevant temperature] can dissolve appreciably in agrochemical spray tanks under normal dilution conditions [for example, temperatures of from just above freezing to 35° C.]. […] Solvents such as acetophenone are normally formulated with an oil of much lower water solubility. […] Table 2 provides water solubilities for a number of solvents at 25° C. Saturated solutions of each solvent in deionised water were prepared by leaving excess solvent in contact with water for a period of at least two weeks. After this time a sample of the water was analysed chromatographically to determine the concentration of solvent present.

[2] = Solubility of chlorothalonil in solvents at 20° C.; format: physicochemical
[3] = system: Brachiaria Decumbens (BRADE); assay: Glass house adjuvant test with mesotrione, weed kill; format: in vivo; conditions: mesotrione 45 g/ha + adjuvant 0.2% v/v in spray-tank, mean (standard deviation), 3 replicates
[4] = system: Amaranthus Tuberculatus (AMATU); assay: as above; format: in vivo; conditions: mesotrione 45 g/ha + adjuvant 0.2% v/v in spray-tank, mean (standard deviation), 3 replicates
Experimental: The weed species Polygonum Convolvulus, Digitaria Sanguinalis, Brachiaria Decumbens and Amaranthus Tuberculatus were grown under glass house conditions and sprayed with the herbicide mesotrione at rate of 45 grams of pesticide per hectare. Weeds were treated with the mesotrione in the absence of (E)-but-2-enedioic acid dibutyl ester (as a control) and also with (E)-but-2-enedioic acid dibutyl ester added to the spray-tank at a concentration of 0.2% v/v. After 14 and 21 days the efficacy of the herbicide was assessed based on the percentage of the weeds that had been killed. Three replicates were used in all cases. The performance of the solvent was assessed by averaging the three replicates at each time period and for each weed. The standard deviation for each result is shown in brackets after the average percentage weed kill.

[5] = system: Polygonum Convolvulus (POLCO); assay: as above; format: in vivo; conditions: mesotrione 45 g/ha + adjuvant 0.2% v/v in spray-tank, mean (standard deviation), 3 replicates
Avena Fatua (AVEFA) = assay: Glass house adjuvant test with pinoxaden, weed kill; format: in vivo; conditions: pinoxaden 7.5 g/ha + adjuvant 0.2% by volume in spray-tank, mean (standard deviation), 3 replicates
Experimental: (§1) The weed species Setaria Viridis (SETVI), Lolium Perenne (LOLPE), Avena Fatua (AVEFA) and Alopecurus Myosuroides (ALOMY) were grown under glass house conditions and sprayed with the herbicide pinoxaden at a rate of 7.5 grams of pesticide per hectare. Weeds were treated with pinoxaden in the absence of (E)-but-2-enedioic acid dibutyl ester (as a control) and also with (E)-but-2-enedioic acid dibutyl ester added to the spray-tank at a concentration of 0.2% by volume. After both 14 and 21 days the efficacy of the herbicide was assessed based on the percentage of the weeds that had been killed. Three replicates were used in all cases. The average percentage of weeds killed is quoted in Table 5 for each weed species either with the adjuvant or without (control). Results have been averaged across three replicates. The standard deviation for each result is shown in brackets after the result.

Lolium Perenne (LOLPE) = assay: as above; format: in vivo; conditions: pinoxaden 7.5 g/ha + adjuvant 0.2% by volume in spray-tank, mean (standard deviation), 3 replicates
Experimental: as §1

Setaria Viridis (SETVI) = assay: as above; format: in vivo; conditions: pinoxaden 7.5 g/ha + adjuvant 0.2% by volume in spray-tank, mean (standard deviation), 3 replicates
Experimental: as §1

[6] = system: Alopecurus Myosuroides (ALOMY); assay: as above; format: in vivo; conditions: pinoxaden 7.5 g/ha + adjuvant 0.2% by volume in spray-tank, mean (standard deviation), 3 replicates
Experimental: as §1

[7] = system: Digitaria Sanguinalis (DIGSA); assay: Glass house adjuvant test with mesotrione, weed kill; format: in vivo; conditions: mesotrione 45 g/ha + adjuvant 0.2% v/v in spray-tank, mean (standard deviation), 3 replicates
[8] = solvent in deionised water, 25° C., contact at least two weeks

C1CCC2CCCCC2C1 (stereo not drawn) [Decalin, decahydronaphthalene]
% water solubility [by weight at 25° C.] [1, 8]: 0.7 % by weight

CC(=O)c1ccccc1 [Acetophenone (methyl phenyl ketone), methyl phenyl ketone]
% water solubility [by weight at 25° C.] [1]: 0.9 % by weight

dimethyl heptamide [Genagen ™ 4166 (dimethyl heptamide)]
% water solubility [by weight at 25° C.] [1, 8]: 0.7 % by weight

C=C(C)[C@H]1CC=C(C)CC1 [Dipentene, limonene]
% water solubility [by weight at 25° C.] [1, 8]: 0.098 % by weight | Chlorothalonil solubility in the solvent [2]: 0.18 percentage w/w

OCc1ccccc1 [Benzyl alcohol, benzene methanol, Benzyl alcohol]
% water solubility [by weight at 25° C.] [1]: 4.4 % by weight

CC(=O)OCC(COC(C)=O)OC(C)=O [Triacetin (glycerol triacetate), glycerol triacetate]
% water solubility [by weight at 25° C.] [1]: 7.7 % by weight

CCCCCCCCCCCCc1ccccc1 [Dodecylbenzene, 1-phenyldodecane]
% water solubility [by weight at 25° C.] [1]: 0.000026 % by weight

c1ccc2c(c1)CCCC2 [Tetralin, tetrahydronaphthalene]
% water solubility [by weight at 25° C.] [1, 8]: 0.18 % by weight

CCOC(=O)/C=C/C(=O)OCC [Diethyl fumarate]
% water solubility [by weight at 25° C.] [1]: 0.8 % by weight

CCCCOC(=O)/C=C/C(=O)OCCCC [(E)-But-2-enedioic acid dibutyl ester]
average percentage weed kill, BRADE ([3]; 14 days after application): 43.3(5.8) % | average percentage weed kill, BRADE ([3]; 21 days after application): 40(0) % | % water solubility [by weight at 25° C.] [1]: 0.04 % by weight | average percentage weed kill, AMATU ([4]; 14 days after application): 76.7(5.8) % | average percentage weed kill, AMATU ([4]; 21 days after application): 94(3.6) % | average percentage weed kill, POLCO ([5]; 14 days after application): 80(10) % | average percentage weed kill, POLCO ([5]; 21 days after application): 80(10) % | average percentage of weeds killed, AVEFA (Avena Fatua (AVEFA); 14 days after application): 20(10) % | average percentage of weeds killed, AVEFA (Avena Fatua (AVEFA); 21 days after application): 16.7(5.8) % | average percentage of weeds killed, LOLPE (Lolium Perenne (LOLPE); 14 days after application): 13.3(5.8) % | average percentage of weeds killed, LOLPE (Lolium Perenne (LOLPE); 21 days after application): 6.7(5.8) % | average percentage of weeds killed, SETVI (Setaria Viridis (SETVI); 14 days after application): 20(0) % | average percentage of weeds killed, SETVI (Setaria Viridis (SETVI); 21 days after application): 20(10) % | average percentage of weeds killed, ALOMY ([6]; 14 days after application): 20(17.3) % | average percentage of weeds killed, ALOMY ([6]; 21 days after application): 33.3(15.3) % | average percentage weed kill, DIGSA ([7]; 14 days after application): 36.7(2.9) % | average percentage weed kill, DIGSA ([7]; 21 days after application): 41.7(7.6) %
